Here are results for four compounds from patent publication US5034390A, “Pyridyl-and pyrmidyl-piperazines useful for the treatment of mental disorders” (Pharmacia AB, priority 1988, dated 1991).

One assay addresses T1, 5-HT2 receptors (Rattus norvegicus, UniProt P14842).
T1 construct: from tissue
The experiment in a line: Affinity to 5-HT2 receptors (3H-ketanserine binding assay, Leysen et al.). Conditions: 3H-ketanserine as ligand. As to the method:
The binding assay is carried out essentially as described by Leysen et al. (Mol. Pharmacol. 21, 301-14, 1982) using ^3 H-ketanserine as ligand.

The conditions of assay [1]: combined 5-HT2/D2 affinity; cited from earlier work.

By Ki is commonly meant a dissociation constant, usually derived from enzyme kinetics or from competition with a known ligand.

Counter-ions that a name gives are not always drawn.

T1 sequence (P14842 whole entry): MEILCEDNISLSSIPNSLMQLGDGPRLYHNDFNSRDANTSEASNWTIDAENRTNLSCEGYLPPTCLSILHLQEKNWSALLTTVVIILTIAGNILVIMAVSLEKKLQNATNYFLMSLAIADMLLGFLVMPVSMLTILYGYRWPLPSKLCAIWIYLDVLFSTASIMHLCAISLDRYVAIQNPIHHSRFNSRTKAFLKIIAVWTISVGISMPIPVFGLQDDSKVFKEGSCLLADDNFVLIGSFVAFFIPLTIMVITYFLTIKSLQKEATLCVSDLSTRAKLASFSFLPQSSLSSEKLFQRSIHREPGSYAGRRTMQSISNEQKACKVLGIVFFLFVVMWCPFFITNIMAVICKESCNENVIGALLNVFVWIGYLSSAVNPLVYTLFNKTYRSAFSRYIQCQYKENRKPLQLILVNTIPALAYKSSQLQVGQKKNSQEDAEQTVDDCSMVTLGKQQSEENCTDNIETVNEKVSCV

`Fc1ccc(CCCCN2CCN(c3cccc(Cl)n3)CC2)cc1` [2:9, 4-/4-(p-fluorophenyl)butyl/-1-/6-chloro-2-pyridyl/piperazine hydrochloride] showed a Ki at 5-HT2 receptors of 7 nM.
Compound `COc1cccc(N2CCN(CCCOc3ccc(F)cc3)CC2)n1` [2:10, 4-/3-(p-fluorophenoxy)propyl/-1-/6-methoxy-2-pyridyl/piperazine fumarate] came in with a Ki on 5-HT2 receptors of 11 nM.
In the case of `NC(=O)c1cccnc1N1CCN(CCCSc2ccc(F)cc2)CC1` [2:19, 4-/3-(p-fluorothiophenoxy)propyl/-1-/3-carbamyl-2-pyridyl/piperazine dihydrochloride], the Ki at 5-HT2 receptors turned out to be 7 nM.
Turning to `CN1CCN(C2=Nc3cc(Cl)ccc3Nc3ccccc32)CC1` [clozapine], the “antipsychotic effect / extrapyramidal side-effects” value in assay [1] is listed as “antipsychotic effect with a low degree of extrapyramidal side-effects”.
